US6444617B1, “Fused-heterocycle dicarboxylic acid diamide derivatives or salts thereof, herbicide and usage thereof” (Nihon Nohyaku Co., Ltd., priority 1998, dated 2002)

What was measured:
Format in all cases: in vivo
[1] = test system: bulrush (Scirpus juncoides Roxb.); assay: Test Example 2: herbicidal effect on paddy field weeds after emergence; conditions: Dosage 5 kg/ha; one-leaved stage; 21 days after treatment
Summary of the method: (§1)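 Weeds were sown in 1/10000 are pots of soil flooded to paddy conditions and grown to the one-leaf stage, then the soil was treated with a solution of compound at a predetermined dosage.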

[2] = test system: monochoria (Monochoria vaginalis Presl); assay: as above; conditions: Dosage 5 kg/ha; one-leaved stage; 21 days after treatment
Summary of the method: as §1

[3] = test system: barnyard grass (Echinochloa crus-galli Beauv.); assay: as above; conditions: Dosage 5 kg/ha; one-leaved stage; 21 days after treatment
Summary of the method: as §1

[4] = test system: bird's eye speedwell (Veronica persica Poir.), Vp; assay: Test Example 4: herbicidal effect on upland weeds after emergence; conditions: dosage 5 kg/ha; sprayed after emergence; judged 14 days after treatment
Summary of the method: (§2)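 Post-emergence foliar spray, compound at prescribed concentration, applied at defined leaf stages; weeds plus soybean/wheat grown in soil vats. Read-out: weed-killing rate and crop injury, 14 d post-treatment.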

[5] = test system: cleavers (Galium aparine L.), Ga; assay: as above; conditions: dosage 5 kg/ha; sprayed after emergence; judged 14 days after treatment
Summary of the method: as §2

[6] = test system: forxtail grass (Alopecurus aequalis var. amurensis Ohwi), Am; assay: as above; conditions: dosage 5 kg/ha; sprayed after emergence; judged 14 days after treatment
Summary of the method: as §2

[7] = test system: cocklebur (Xanthium strumarium L.), Xs; assay: as above; conditions: dosage 5 kg/ha; sprayed after emergence; judged 14 days after treatment
Summary of the method: as §2

[8] = test system: barnyard grass (Echinochloa crus-galli Beauv.), Ec; assay: as above; conditions: dosage 5 kg/ha; sprayed after emergence; judged 14 days after treatment
Summary of the method: as §2

[9] = test system: velvetleaf (Abutilon theophtasti L.), At; assay: as above; conditions: dosage 5 kg/ha; sprayed after emergence; judged 14 days after treatment
Summary of the method: as §2

[10] = test system: bird's eye speedwell (Veronica persica Poir.), Vp; assay: Test Example 3: herbicidal effect on upland weeds before emergence; conditions: dosage 5 kg/ha
Summary of the method: (§3)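 Steps: sow upland weed seeds; spray liquid formulation of active ingredient at prescribed concentration prior to emergence; after 14 days, calculate weed-killing rate; judge herbicidal effect.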

[11] = test system: cleavers (Galium aparine L.), Ga; assay: as above; conditions: dosage 5 kg/ha
Summary of the method: as §3

[12] = test system: forxtail grass (Alopecurus aequalis var. amurensis Ohwi), Am; assay: as above; conditions: foxtail grass, dosage 5 kg/ha
Summary of the method: as §3

[13] = test system: cocklebur (Xanthium strumarium L.), Xs; assay: as above; conditions: dosage 5 kg/ha
Summary of the method: as §3

[14] = test system: barnyard grass (Echinochloa crus-galli Beauv.), Ec; assay: as above; conditions: dosage 5 kg/ha
Summary of the method: as §3

[15] = test system: velvetleaf (Abutilon theophtasti L.), At; assay: as above; conditions: dosage 5 kg/ha
Summary of the method: as §3

[16] = test system: bulrush (Scirpus juncoides Roxb.); assay: Test Example 1: herbicidal effect on paddy field weeds before emergence; conditions: Dosage 5 kg/ha
Summary of the method: (§4)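 Grading reflects percent control relative to untreated plots, evaluated three weeks post-application. Treatment was a soil application of compound solution, predetermined dose, made to paddy-state pots before weed seeds germinated.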

[17] = test system: barnyard grass (Echinochloa crus-galli Beauv.); assay: as above; conditions: Dosage 5 kg/ha
Summary of the method: as §4

[18] = test system: soybean plant; assay: Test Example 4: phytotoxicity to upland crop plants, treatment after emergence; conditions: dosage 5 kg/ha, sprayed after emergence, judged 14 days after treatment
Summary of the method: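 Seeds sown in soil and covered. Plants raised to specified leaf stages. Agent with test compound at a prescribed concentration sprayed. Herbicidal effect and crop damage scored after 14 days as weed-killing rate.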

[19] = test system: wheat; assay: as above; conditions: dosage 5 kg/ha, sprayed after emergence, judged 14 days after treatment
Summary of the method: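 Scores of weed-killing rate, with crop phytotoxicity, come from inspection 14 days after plants in soil vats, grown to specified leaf stages, are sprayed with a formulation holding the compound at a prescribed concentration.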

[20] = test system: soybean plant (So); assay: Test Example 3: phytotoxicity to upland crop plants, treatment before emergence; conditions: dosage 5 kg/ha
Summary of the method: (§5)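 Pre-emergence spray, test compound at prescribed conc. in liquid formulation; crop injury (soybean, wheat) read at day 14, scored by criterion.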

[21] = test system: wheat (Wh); assay: as above; conditions: dosage 5 kg/ha
Summary of the method: as §5

SMILES	Post-emergence treatment Bulrush (herbicidal effect) [1]	Post-emergence treatment Monochoria (herbicidal effect) [2]	Post-emergence treatment Barnyard grass (herbicidal effect) [3]	Herbicidal effect Vp [4]	Herbicidal effect Ga [5]	Herbicidal effect Am [6]	Herbicidal effect Xs [7]	Herbicidal effect Ec [8]	Herbicidal effect At [9]	Herbicidal effect Vp [10]	Herbicidal effect Ga [11]	Herbicidal effect Am [12]	Herbicidal effect Xs [13]	Herbicidal effect Ec [14]	Herbicidal effect At [15]	Pre-emergence treatment Bulrush (herbicidal effect) [16]	Pre-emergence treatment Barnyard grass (herbicidal effect) [17]	Phytotoxicity So [18]	Phytotoxicity Wh [19]	Phytotoxicity So [20]	other results
CCc1ccc(Cl)c(CC)c1NC(=O)c1cc2cc(OC)ccc2nc1C(=O)NOC(C)C [compound 291]	4 (Weed-killing rate is 90-99%.)	5 (Weed-killing rate is 100%.)	5 (Weed-killing rate is 100%.)	5 (Weed-killing rate is 100%.)	4 (Weed-killing rate is 90-99%.)	4 (Weed-killing rate is 90-99%.)	4 (Weed-killing rate is 90-99%.)	5 (Weed-killing rate is 100%.)	5 (Weed-killing rate is 100%.)	5 (Weed-killing rate is 100%.)	5 (Weed-killing rate is 100%.)	4 (Weed-killing rate is 90-99%.)	4 (Weed-killing rate is 90-99%.)	5 (Weed-killing rate is 100%.)	5 (Weed-killing rate is 100%.)	4 (Weed-killing rate is 90-99%.)	5 (Weed-killing rate is 100%.)	2 (Crop-killing rate is 40-69%.)	2 (Crop-killing rate is 40-69%.)	0 (Crop-killing rate is 0-20% (No Phytotoxicity).)	Phytotoxicity Wh [21]: 1 (Crop-killing rate is 1-39%.)
CCCNC(=O)c1nc2cc(OC)c(OC)cc2cc1C(=O)Nc1c(CC)ccc(Cl)c1CC [compound 305]	3 (Weed-killing rate is 70-89%.)	5 (Weed-killing rate is 100%.)	4 (Weed-killing rate is 90-99%.)	4 (Weed-killing rate is 90-99%.)	2 (Weed-killing rate is 40-69%.)	3 (Weed-killing rate is 70-89%.)	2 (Weed-killing rate is 40-69%.)	4 (Weed-killing rate is 90-99%.)	4 (Weed-killing rate is 90-99%.)	4 (Weed-killing rate is 90-99%.)	3 (Weed-killing rate is 70-89%.)	4 (Weed-killing rate is 90-99%.)	3 (Weed-killing rate is 70-89%.)	5 (Weed-killing rate is 100%.)	4 (Weed-killing rate is 90-99%.)	4 (Weed-killing rate is 90-99%.)	5 (Weed-killing rate is 100%.)	1 (Crop-killing rate is 1-39%.)	2 (Crop-killing rate is 40-69%.)	0 (Crop-killing rate is 0-20% (No Phytotoxicity).)	Phytotoxicity Wh [21]: 2 (Crop-killing rate is 40-69%.)
CCc1ccc(Cl)c(CC)c1NC(=O)c1cc2cc(OC)c(OC)cc2nc1C(=O)NCC(C)C [compound 310]	2 (Weed-killing rate is 40-69%.)	5 (Weed-killing rate is 100%.)	3 (Weed-killing rate is 70-89%.)	3 (Weed-killing rate is 70-89%.)	2 (Weed-killing rate is 40-69%.)	3 (Weed-killing rate is 70-89%.)	3 (Weed-killing rate is 70-89%.)	4 (Weed-killing rate is 90-99%.)	4 (Weed-killing rate is 90-99%.)	4 (Weed-killing rate is 90-99%.)	3 (Weed-killing rate is 70-89%.)	4 (Weed-killing rate is 90-99%.)	3 (Weed-killing rate is 70-89%.)	4 (Weed-killing rate is 90-99%.)	4 (Weed-killing rate is 90-99%.)	3 (Weed-killing rate is 70-89%.)	4 (Weed-killing rate is 90-99%.)	0 (Crop-killing rate is 0-20% (No Phytotoxicity).)	2 (Crop-killing rate is 40-69%.)	0 (Crop-killing rate is 0-20% (No Phytotoxicity).)	Phytotoxicity Wh [21]: 2 (Crop-killing rate is 40-69%.)
CCCNC(=O)c1nc2cc3c(cc2cc1C(=O)Nc1c(CC)ccc(Cl)c1CC)OCO3 [compound 334]	4 (Weed-killing rate is 90-99%.)	5 (Weed-killing rate is 100%.)	4 (Weed-killing rate is 90-99%.)	4 (Weed-killing rate is 90-99%.)	3 (Weed-killing rate is 70-89%.)	3 (Weed-killing rate is 70-89%.)	3 (Weed-killing rate is 70-89%.)	4 (Weed-killing rate is 90-99%.)	4 (Weed-killing rate is 90-99%.)	4 (Weed-killing rate is 90-99%.)	3 (Weed-killing rate is 70-89%.)	4 (Weed-killing rate is 90-99%.)	3 (Weed-killing rate is 70-89%.)	4 (Weed-killing rate is 90-99%.)	5 (Weed-killing rate is 100%.)	4 (Weed-killing rate is 90-99%.)	5 (Weed-killing rate is 100%.)	1 (Crop-killing rate is 1-39%.)	2 (Crop-killing rate is 40-69%.)	0 (Crop-killing rate is 0-20% (No Phytotoxicity).)	Phytotoxicity Wh [21]: 2 (Crop-killing rate is 40-69%.)
